Data published in patent US8471005B2 (Cephalon, Inc., priority 2008, dated 2013).
Read-outs that look alike come from different tables or passages of the source.

Legend:
ALK = molecular target: T1, ALK (Homo sapiens, UniProt Q9UM73); experiment: ALK Kinase Assay (ELISA/TRF, PLC-γ substrate); format: biochemical; conditions: read-out: ALK Potency
T1 construct: host or cells: baculovirus expression system
In short: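 IC50 values derive from percent inhibition plotted against log10 compound concentration and fitted to a variable-slope sigmoidal equation. The underlying reaction used 30 ng/ml ALK acting on immobilized PLC-γ (10 μg/mL in TBS) at 37° C for 15 minutes, read with Eu-N1 PT66 antibody.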

JAK2 = molecular target: T2, JAK2 (Homo sapiens, UniProt O60674); experiment: Recombinant Human JAK2 Kinase Assay (TRF); format: biochemical; conditions: read-out: JAK2 Potency
T2 construct: host or cells: baculovirus expression system
T2 sequence (O60674 whole entry): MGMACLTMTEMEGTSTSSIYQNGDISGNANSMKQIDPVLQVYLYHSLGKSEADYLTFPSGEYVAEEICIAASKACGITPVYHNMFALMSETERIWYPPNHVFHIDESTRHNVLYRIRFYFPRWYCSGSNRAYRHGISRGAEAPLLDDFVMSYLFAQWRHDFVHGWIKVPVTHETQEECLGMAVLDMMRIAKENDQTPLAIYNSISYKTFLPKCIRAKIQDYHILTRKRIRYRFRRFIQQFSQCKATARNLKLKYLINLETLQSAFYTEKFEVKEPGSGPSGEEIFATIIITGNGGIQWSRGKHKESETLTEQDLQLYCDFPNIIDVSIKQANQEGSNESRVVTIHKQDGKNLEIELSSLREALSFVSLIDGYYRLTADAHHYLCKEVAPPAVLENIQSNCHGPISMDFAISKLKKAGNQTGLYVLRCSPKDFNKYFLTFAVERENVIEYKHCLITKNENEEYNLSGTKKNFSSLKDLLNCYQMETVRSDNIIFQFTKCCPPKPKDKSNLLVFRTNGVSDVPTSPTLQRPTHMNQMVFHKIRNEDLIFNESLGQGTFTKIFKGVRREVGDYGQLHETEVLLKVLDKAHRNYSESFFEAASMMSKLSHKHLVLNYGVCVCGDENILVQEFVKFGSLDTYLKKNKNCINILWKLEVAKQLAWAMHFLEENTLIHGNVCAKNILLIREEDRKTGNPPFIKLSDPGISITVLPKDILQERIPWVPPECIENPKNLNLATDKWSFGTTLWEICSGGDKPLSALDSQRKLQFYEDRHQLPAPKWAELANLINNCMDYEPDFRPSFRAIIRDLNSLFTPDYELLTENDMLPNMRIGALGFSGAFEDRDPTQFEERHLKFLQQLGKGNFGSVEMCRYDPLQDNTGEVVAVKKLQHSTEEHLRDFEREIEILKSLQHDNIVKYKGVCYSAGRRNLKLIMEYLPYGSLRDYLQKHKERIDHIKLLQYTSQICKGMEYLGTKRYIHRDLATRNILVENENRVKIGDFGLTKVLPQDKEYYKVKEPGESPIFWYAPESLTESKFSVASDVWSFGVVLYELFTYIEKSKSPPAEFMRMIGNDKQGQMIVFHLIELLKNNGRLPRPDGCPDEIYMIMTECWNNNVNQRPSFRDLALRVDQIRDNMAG
In short: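 Baculovirus-expressed JAK2 (15 ng/ml) phosphorylated a biotinylated 15-mer peptide captured on Neutravidin, in 20 mM HEPES pH 7.2, 0.2 μM ATP, 1 mM MnCl2, 0.1% BSA, 2.5% DMSO final, 20 min at room temperature. Phosphoproduct detected by time-resolved fluorescence with Eu-N1-labelled PY100 antibody.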

[1] = ALK kinase inhibition, 1 μM ATP
[2] = JAK2 kinase inhibition, 0.2 μM ATP

T1 sequence (Q9UM73 19-1620): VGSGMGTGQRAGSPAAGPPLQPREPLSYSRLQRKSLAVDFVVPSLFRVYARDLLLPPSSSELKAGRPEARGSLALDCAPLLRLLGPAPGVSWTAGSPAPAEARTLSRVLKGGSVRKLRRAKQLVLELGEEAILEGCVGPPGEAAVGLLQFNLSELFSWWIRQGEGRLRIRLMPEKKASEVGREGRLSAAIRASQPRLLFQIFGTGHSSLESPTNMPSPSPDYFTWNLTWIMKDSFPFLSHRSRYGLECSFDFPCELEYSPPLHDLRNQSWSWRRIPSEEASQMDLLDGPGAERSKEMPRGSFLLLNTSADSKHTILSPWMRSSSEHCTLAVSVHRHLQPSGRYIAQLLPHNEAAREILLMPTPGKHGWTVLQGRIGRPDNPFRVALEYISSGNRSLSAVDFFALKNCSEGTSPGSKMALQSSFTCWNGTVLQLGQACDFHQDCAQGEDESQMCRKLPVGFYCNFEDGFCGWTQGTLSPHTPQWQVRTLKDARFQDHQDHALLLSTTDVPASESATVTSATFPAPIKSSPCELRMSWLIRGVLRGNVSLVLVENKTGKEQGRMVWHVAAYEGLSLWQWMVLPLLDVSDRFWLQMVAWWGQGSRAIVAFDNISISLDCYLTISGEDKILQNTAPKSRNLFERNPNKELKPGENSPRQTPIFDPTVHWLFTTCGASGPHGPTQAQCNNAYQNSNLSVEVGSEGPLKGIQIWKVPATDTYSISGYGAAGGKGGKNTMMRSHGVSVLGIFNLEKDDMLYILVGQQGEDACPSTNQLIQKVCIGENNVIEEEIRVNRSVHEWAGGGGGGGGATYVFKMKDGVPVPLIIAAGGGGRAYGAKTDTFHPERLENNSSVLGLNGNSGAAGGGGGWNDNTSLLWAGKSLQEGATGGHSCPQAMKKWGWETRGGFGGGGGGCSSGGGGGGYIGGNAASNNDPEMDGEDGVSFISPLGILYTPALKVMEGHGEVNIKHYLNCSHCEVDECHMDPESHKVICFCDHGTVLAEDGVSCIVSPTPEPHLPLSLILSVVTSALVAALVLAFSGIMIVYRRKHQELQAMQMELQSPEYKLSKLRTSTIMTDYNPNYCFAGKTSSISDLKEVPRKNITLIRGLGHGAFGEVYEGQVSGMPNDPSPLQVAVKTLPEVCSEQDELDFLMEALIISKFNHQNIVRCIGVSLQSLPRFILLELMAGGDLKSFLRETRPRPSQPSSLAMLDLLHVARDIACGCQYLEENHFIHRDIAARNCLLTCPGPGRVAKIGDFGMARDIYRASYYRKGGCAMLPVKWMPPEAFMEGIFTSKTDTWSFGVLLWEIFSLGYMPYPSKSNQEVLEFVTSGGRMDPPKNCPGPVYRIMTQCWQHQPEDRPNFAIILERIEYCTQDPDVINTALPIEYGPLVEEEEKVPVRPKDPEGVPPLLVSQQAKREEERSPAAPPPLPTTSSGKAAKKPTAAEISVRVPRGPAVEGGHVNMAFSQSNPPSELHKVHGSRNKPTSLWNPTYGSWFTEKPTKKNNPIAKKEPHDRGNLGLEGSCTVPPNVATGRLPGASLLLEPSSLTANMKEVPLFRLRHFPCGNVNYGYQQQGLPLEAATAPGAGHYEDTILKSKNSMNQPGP

Compound | IC50 (ALK; [1]) | IC50 (JAK2; [2]) | IC50 (ALK; ALK Kinase Inhibition) | IC50 (JAK2; JAK2 Kinase Inhibition)
COc1ccccc1-c1ccc2cnc(Nc3ccc(=O)[nH]c3)nn12 [Example 591, 5-[7-(2-Methoxy-phenyl)-pyrrolo[2,1-f][1,2,4]triazin-2-ylamino]-1H-pyridin-2-one] | 1000 to 10000 nM | < 100 nM | – | –
CC(C)(C)NS(=O)(=O)c1cccc(-c2ccc3cnc(Nc4cccc(-n5cccn5)c4)nn23)c1 [Example 1386, N-tert-Butyl-3-[2-(3-pyrazol-1-yl-phenylamino)-pyrrolo[2,1-f][1,2,4]triazin-7-yl]-benzenesulfonamide] | – | – | 1000 to 10000 nM | < 100 nM
CN1CCN(c2ccc(Nc3ncc4ccc(-c5cccc(NS(C)(=O)=O)c5)n4n3)nc2)CC1 [Example 1194, N-(3-{2-[5-(4-Methyl-piperazin-1-yl)-pyridin-2-ylamino]-pyrrolo[2,1-f][1,2,4]triazin-7-yl}-phenyl)-methanesulfonamide] | 100 to 1000 nM | < 100 nM | – | –
CN1CCC(c2ccc(Nc3ncc4ccc(-c5cccc(S(=O)(=O)NC6CC6)c5)n4n3)cc2)CC1 [Example 906, N-Cyclopropyl-3-{2-[4-(1-methyl-piperidin-4-yl)-phenylamino]-pyrrolo[2,1-f][1,2,4]triazin-7-yl}-benzenesulfonamide] | < 100 nM | < 100 nM | – | –
COc1cc(N2CCC(N3CCCN(CCO)CC3)CC2)ccc1Nc1ncc2ccc(-c3ccccc3N(C)S(C)(=O)=O)n2n1 [Example 803, N-{2-[2-(4-{4-[4-(2-Hydroxy-ethyl)-[1,4]diazepan-1-yl]-piperidin-1-yl}-2-methoxy-phenylamino)-pyrrolo[2,1-f][1,2,4]triazin-7-yl]-phenyl}-N-methyl-methanesulfonamide] | < 100 nM | 100 to 1000 nM | – | –
COc1ccccc1-c1ccn2nc(Nc3ccc4c(c3)CN(C)CC4)ncc12 [Example 722, [5-(2-Methoxy-phenyl)-pyrrolo[2,1-f][1,2,4]triazin-2-yl]-(2-methyl-1,2,3,4-tetrahydro-isoquinolin-7-yl)-amine] | > 10000 nM | 1000 to 10000 nM | – | –
COc1ccc(-c2ccc3cnc(Nc4ccc(N5CCN(C)CC5)cc4OC)nn23)cn1 [Example 73, [2-Methoxy-4-(4-methyl-piperazin-1-yl)-phenyl]-[7-(6-methoxy-pyridin-3-yl)-pyrrolo[2,1-f][1,2,4]triazin-2-yl]-amine] | – | – | < 100 nM | < 100 nM
CN1CCN(c2ncc3ccc(-c4ccccc4N(C)S(C)(=O)=O)n3n2)CC1 [Example 1250, N-Methyl-N-{2-[2-(4-methyl-piperazin-1-yl)-pyrrolo[2,1-f][1,2,4]triazin-7-yl]-phenyl}-methanesulfonamide] | 1000 to 10000 nM | 100 to 1000 nM | – | –
COc1cc(N2CCC(N3CCOCC3)CC2)ccc1Nc1ncc2ccc(-c3cccnc3)n2n1 [Example 1170, [2-Methoxy-4-(4-morpholin-4-yl-piperidin-1-yl)-phenyl]-(7-pyridin-3-yl-pyrrolo[2,1-f][1,2,4]triazin-2-yl)-amine] | 100 to 1000 nM | < 100 nM | – | –
CN1CCN(c2cccc(Nc3ncc4ccc(-c5cccc(CO)c5)n4n3)c2)CC1 [Example 1557, (3-{2-[3-(4-Methyl-piperazin-1-yl)-phenylamino]-pyrrolo[2,1-f][1,2,4]triazin-7-yl}-phenyl)-methanol] | – | – | < 100 nM | < 100 nM
CS(=O)(=O)c1ccc(-c2ccc3cnc(Nc4ccc5[nH]c(CN6CCN(CCO)CC6)nc5c4)nn23)cc1 [Example 1543, 2-(4-{5-[7-(4-Methanesulfonyl-phenyl)-pyrrolo[2,1-f][1,2,4]triazin-2-ylamino]-1H-benzimidazol-2-ylmethyl}-piperazin-1-yl)-ethanol] | – | – | 1000 to 10000 nM | < 100 nM
Cc1cc(Nc2ncc3ccc(-c4ccc(S(C)(=O)=O)cc4)n3n2)ccc1C1CCN(C)CC1 [Example 947, [7-(4-Methanesulfonyl-phenyl)-pyrrolo[2,1-f][1,2,4]triazin-2-yl]-[3-methyl-4-(1-methyl-piperidin-4-yl)-phenyl]-amine] | < 100 nM | < 100 nM | – | –
COc1ccc(Cl)cc1-c1ccc2cnc(Nc3ccc(N4CCN(C[C@@H](C)O)CC4)cc3)nn12 [Example 207, (R)-1-(4-{4-[7-(5-Chloro-2-methoxy-phenyl)-pyrrolo[2,1-f][1,2,4]triazin-2-ylamino]-phenyl}-piperazin-1-yl)-propan-2-ol] | – | – | < 100 nM | < 100 nM
CC(C)(C)NS(=O)(=O)c1cccc(-c2ccc3cnc(Nc4ccc(Cl)cc4)nn23)c1 [Example 1400, N-tert-Butyl-3-[2-(4-chloro-phenylamino)-pyrrolo[2,1-f][1,2,4]triazin-7-yl]-benzenesulfonamide] | – | – | 1000 to 10000 nM | < 100 nM
CC(=O)Nc1ccccc1-c1ccc2cnc(Nc3ccc(N4CCC(N5CCOCC5)CC4)cc3)nn12 [Example 454, N-(2-{2-[4-(4-Morpholin-4-yl-piperidin-1-yl)-phenylamino]-pyrrolo[2,1-f][1,2,4]triazin-7-yl}-phenyl)-acetamide] | – | – | 100 to 1000 nM | < 100 nM
CC1(C)C(=O)Nc2cc(Nc3ncc4ccc(-c5cccc(N6CCCS6(=O)=O)c5)n4n3)ccc21 [Example 1510, 6-({7-[3-(1,1-Dioxido-1,2-thiazolidin-2-yl)phenyl]pyrrolo[2,1-f][1,2,4]triazin-2-yl}amino)-3,3-dimethyl-1,3-dihydro-2H-indol-2-one] | – | – | 1000 to 10000 nM | < 100 nM
CN1CCN(C(=O)c2ccc(Nc3ncc4ccc(-c5ccccc5N(C)S(C)(=O)=O)n4n3)cc2)CC1 [Example 1425, N-Methyl-N-(2-{2-[4-(4-methyl-piperazine-1-carbonyl)-phenylamino]-pyrrolo[2,1-f][1,2,4]triazin-7-yl}-phenyl)-methanesulfonamide] | – | – | 100 to 1000 nM | < 100 nM
OCCN1CCN(c2ccc(Nc3ncc4ccc(-c5cccnc5)n4n3)cc2)CC1 [Example 115, 2-{4-[4-(7-Pyridin-3-yl-pyrrolo[2,1-f][1,2,4]triazin-2-ylamino)-phenyl]-piperazin-1-yl}-ethanol] | – | – | 100 to 1000 nM | < 100 nM
CS(=O)(=O)c1ccc(-c2ccc3cnc(Nc4ccc(C5(C#N)CCN(CC(N)=O)CC5)cc4)nn23)cc1 [Example 1547, 2-(4-Cyano-4-{4-[7-(4-methanesulfonyl-phenyl)-pyrrolo[2,1-f][1,2,4]triazin-2-ylamino]-phenyl}-piperidin-1-yl)-acetamide] | – | – | 1000 to 10000 nM | < 100 nM
COCCN1CCc2ccc(Nc3ncc4ccc(-c5ccccc5S(=O)(=O)N(C)C)n4n3)cc2CC1 [Example 31, 2-{2-[3-(2-Methoxy-ethyl)-2,3,4,5-tetrahydro-1H-benzo[d]azepin-7-ylamino]-pyrrolo[2,1-f][1,2,4]triazin-7-yl}-N,N-dimethyl-benzenesulfonamide] | – | – | 100 to 1000 nM | < 100 nM
CN1CCN(c2ccc(Nc3ncc4ccc(-c5ccccc5NS(C)(=O)=O)n4n3)cc2)CC1 [Example 429, N-(2-{2-[4-(4-Methyl-piperazin-1-yl)-phenylamino]-pyrrolo[2,1-f][1,2,4]triazin-7-yl}-phenyl)-methanesulfonamide] | – | – | 100 to 1000 nM | < 100 nM
COc1cccc(-c2ccc3cnc(Nc4ccc(N5CCN(C)CC5)cc4)nn23)c1 [Example 423, [7-(3-Methoxy-phenyl)-pyrrolo[2,1-f][1,2,4]triazin-2-yl]-[4-(4-methyl-piperazin-1-yl)-phenyl]-amine] | – | – | 100 to 1000 nM | < 100 nM
COc1cc(C2CCN(C(=O)CN)CC2)ccc1Nc1ncc2ccc(-c3ccccc3OC)n2n1 [Example 823, 2-Amino-1-(4-{3-methoxy-4-[7-(2-methoxy-phenyl)-pyrrolo[2,1-f][1,2,4]triazin-2-ylamino]-phenyl}-piperidin-1-yl)-ethanone] | < 100 nM | 100 to 1000 nM | – | –
Cc1c(Nc2ncc3ccc(-c4ccccc4N(C)S(C)(=O)=O)n3n2)ccc2[nH]c(=O)oc12 [Example 1493, N-Methyl-N-{2-[2-(7-methyl-2-oxo-2,3-dihydro-benzoxazol-6-ylamino)-pyrrolo[2,1-f][1,2,4]triazin-7-yl]-phenyl}-methanesulfonamide] | – | – | 100 to 1000 nM | 100 to 1000 nM
CN1CCN(c2ccc(Nc3ncc4ccc(-c5ccc(S(C)(=O)=O)cc5)n4n3)cn2)CC1 [Example 1110, [7-(4-Methanesulfonyl-phenyl)-pyrrolo[2,1-f][1,2,4]triazin-2-yl]-[6-(4-methyl-piperazin-1-yl)-pyridin-3-yl]-amine] | 100 to 1000 nM | < 100 nM | – | –
COc1cc2c(cc1Nc1ncc3ccc(-c4cccc5c4OCC5)n3n1)CCN(CC(N)=O)CC2 [Example 708, 2-{7-[7-(2,3-Dihydro-benzofuran-7-yl)-pyrrolo[2,1-f][1,2,4]triazin-2-ylamino]-8-methoxy-1,2,4,5-tetrahydro-3-benzazepin-3-yl}-acetamide] | < 100 nM | 100 to 1000 nM | – | –
O=C(NCCN1CCOCC1)c1ccc(-c2ccc3cnc(Nc4ccc(N5CCOCC5)cc4)nn23)cc1 [Example 56, N-(2-Morpholin-4-yl-ethyl)-4-[2-(4-morpholin-4-yl-phenylamino)-pyrrolo[2,1-f][1,2,4]triazin-7-yl]-benzamide] | – | – | 1000 to 10000 nM | < 100 nM
CN(c1ccccc1-c1ccc2cnc(Nc3ccc(N4CCC(O)CC4)cc3)nn12)S(C)(=O)=O [Example 635, N-(2-{2-[4-(4-Hydroxy-piperidin-1-yl)-phenylamino]pyrrolo[2,1-f][1,2,4]triazin-7-yl}phenyl)-N-methylmethanesulfonamide] | 100 to 1000 nM | < 100 nM | – | –
